Assay results taken from patent US20050163731A1, “Skin depigmenting compositions comprising adapalene and at least one depigmenting active agent” (GALDERMA RESEARCH & DEVELOPMENT, S.N.C., priority 2002, published 2005).

How the values were obtained:
[1] = tested on: natural pigmentation of the tail of SKH HR2 mice; test: Depigmenting activity on natural pigmentation, tail of non-irradiated SKH HR2 mice (clinical pigmentation score); format: in vivo; settings: non-irradiated SKH HR2 mouse tail, hydroquinone 3%, adapalene 0.1% in acetone, topical, 5 days per week for 8 weeks, score 0 to -4
Procedure: The depigmenting activity is measured on the natural pigmentation after application of the test product to the tail of non-irradiated animals.
The treatment is carried out for 5 days per week for 8 weeks. […] On the days for irradiation, the treatment is applied after irradiation.
The evaluation is made by different clinical observations: once per week before irradiation, the pigmentation is evaluated by virtue of a score on a scale from 0 to 4. The distribution of the scores is the following: • −0: natural pigmentation • depigmentation scale: scores −1 to −4 • −1: light depigmentation • −2: moderate depigmentation • −3: marked depigmentation • −4: total depigmentation • pigmentation scale: scores 1 to 4 • 1: light pigmentation • 2: moderate pigmentation • 3: marked pigmentation • 4: intense pigmentation

[2] = tested on: UV-induced pigmentation of the tail of SKH HR2 mice; settings: SKH HR2 mouse tail irradiated with UV-B 90 mJ/cm^2 3 times per week for 8 weeks; hydroquinone 3%, adapalene 0.1% topical; score 1 to 4
Procedure: The depigmenting activity is measured on the natural pigmentation after application of the test product to the tail of non-irradiated animals. The anti-pigmenting activity is measured by the inhibition of the induction of the UV-induced pigmentation: the test product is applied to the tail of animals irradiated with UV-B. The treatment is carried out for 5 days per week for 8 weeks. […] On the days for irradiation, the treatment is applied after irradiation. The animals are irradiated 3 times per week for 8 weeks (Monday, Wednesday, Friday) at the dose of 90 mJ/cm^2 of UV-B. The evaluation is made by different clinical observations: once per week before irradiation, the pigmentation is evaluated by virtue of a score on a scale from 0 to 4. The distribution of the scores is the following: • −0: natural pigmentation • depigmentation scale: scores −1 to −4 • −1: light depigmentation • −2: moderate depigmentation • −3: marked depigmentation • −4: total depigmentation • pigmentation scale: scores 1 to 4 • 1: light pigmentation • 2: moderate pigmentation • 3: marked pigmentation • 4: intense pigmentation

## Oc1ccc(O)cc1 [hydroquinone]
[1]
  Depigmenting activity (effect on natural pigmentation): statistically significant depigmentation at the end of the study
[2]
  Anti-pigmenting activity (inhibition of UV-B-induced pigmentation): anti-pigmenting effect at the 6th and at the 7th week (D50) which becomes less marked at the end of the study

## COc1ccc(-c2ccc3cc(C(=O)O)ccc3c2)cc1C12CC3CC(CC(C3)C1)C2 [Adapalene, 6-[3-(1-adamantyl)-4-methoxyphenyl]-2-naphthanoic acid]
[1]
  Depigmenting activity (effect on natural pigmentation): does not modify the natural pigmentation
[1]; listed as adapalene
  Depigmenting activity (effect on natural pigmentation): no depigmenting activity
